This is an account of results in patent US6849394B2, “Compositions comprising reproductive cell media and methods for using such compositions” (Minitube of America, priority 2002, dated 2005).

Structures are written as SMILES.

For the experiment, the system named is boar sperm cells. Nature of the experiment: Motility of sperm in boar semen stored at 17° C. in sperm cell medium (Sperm Vison). The experiment is classed as cell-based. As for the experimental part:
Compositions comprising sperm cell media were prepared prior to collection by reconstituting Androhep Plus™ and the individual components indicated in the experiments below with microfiltered, deionized (Type I) water. Androhep Plus™ was prepared according to the manufacturer's instructions, except that additional components were added in an amount sufficient to give the concentrations indicated below. Each composition was transferred in 75-ml aliquots to 100-ml plastic bottles commercially available from Minitube of America (Verona, Wis.). Semen was collected (modified full ejaculate) from randomly selected, sexually mature boars (n=3) using the gloved hand technique. Following each collection, each ejaculate was evaluated for sperm cell concentration with an SDM5 photometer with a 546 nm filter and the percentage of motile cells was assessed with Sperm Vison™ using a plain glass slide and a 6 μl drop of semen. Aliquots of semen containing 1×10^9 motile spermatozoa from each of the three boars was transferred into each 75-ml aliquot of composition comprising sperm cell medium at the same temperature (36° C.±1° C.) to give a final concentration of 4×10^7 live sperm cells/ml. Following dispersion of the sperm cells in the composition, each sample was tested for percent motility. Samples were maintained in a semen storage unit at 17° C. The samples were gently mixed periodically during storage. […] Each aliquot was pre-warmed for 30 minutes in a dry block heater at 37° C. prior to motility testing. Motility testing was which was performed using the Sperm Vison™ module in the Prism Program and a plain glass slide pre-warmed to 37° C.

On to `O[C@H]1[C@H](O)[C@@H](O)[C@H](O)[C@@H](O)[C@H]1O` [inositol], for which the Mean % motility (Table 8, Androhep Plus, inositol 0.25 g/L, day 1) is 85.7%; the Mean % motility (Table 8, Androhep Plus, inositol 0.25 g/L, day 5) stood at 88.0%; the Mean % motility (Table 8, Androhep Plus, inositol 0.25 g/L, day 7) worked out at 93.3%; the Mean % motility (Table 8, Androhep Plus, inositol 0.25 g/L, day 10) was 78.3%; the Mean % motility (Table 8, Androhep Plus, inositol 0.25 g/L, day 20) is listed as 48.0%; the Mean % motility (Table 8, Androhep Plus, inositol 0.5 g/L, day 1) is listed as 94.7%. The Mean % motility is listed as 93.3% (Table 8, Androhep Plus, inositol 0.5 g/L, day 5); 92.7% (Table 8, Androhep Plus, inositol 0.5 g/L, day 7); 84.3% (Table 8, Androhep Plus, inositol 0.5 g/L, day 10); 70.3% (Table 8, Androhep Plus, inositol 0.5 g/L, day 20).

As for `O=C(CO)[C@@H](O)[C@H](O)[C@H](O)CO` [fructose], the Mean % motility (Table 7, Androhep Plus + 20 ng/L TGFβ-1, 0.8 ng/L TGFβ-2, 80 ng/L IGF-1, fructose 3.75 g/L, day 1) is reported as 94.9%; the Mean % motility (Table 7, Androhep Plus + 20 ng/L TGFβ-1, 0.8 ng/L TGFβ-2, 80 ng/L IGF-1, fructose 3.75 g/L, day 5) turned out to be 88.7%; the Mean % motility (Table 7, Androhep Plus + 20 ng/L TGFβ-1, 0.8 ng/L TGFβ-2, 80 ng/L IGF-1, fructose 3.75 g/L, day 10) is reported as 88.7%; the Mean % motility (Table 7, Androhep Plus + 20 ng/L TGFβ-1, 0.8 ng/L TGFβ-2, 80 ng/L IGF-1, fructose 3.75 g/L, day 20) is on record as 89.8%; the Mean % motility (Table 7, Androhep Plus + 20 ng/L TGFβ-1, 0.8 ng/L TGFβ-2, 80 ng/L IGF-1, fructose 7.5 g/L, day 1) came out at 96.9%; the Mean % motility (Table 7, Androhep Plus + 20 ng/L TGFβ-1, 0.8 ng/L TGFβ-2, 80 ng/L IGF-1, fructose 7.5 g/L, day 5) is listed as 91.0%. In addition, the Mean % motility is, setting by setting: (Table 7, Androhep Plus + 20 ng/L TGFβ-1, 0.8 ng/L TGFβ-2, 80 ng/L IGF-1, fructose 7.5 g/L, day 10) 88.3%; (Table 7, Androhep Plus + 20 ng/L TGFβ-1, 0.8 ng/L TGFβ-2, 80 ng/L IGF-1, fructose 7.5 g/L, day 20) 89.8%; (Table 7, Androhep Plus + 20 ng/L TGFβ-1, 0.8 ng/L TGFβ-2, 80 ng/L IGF-1, fructose 15 g/L, day 1) 94.3%; (Table 7, Androhep Plus + 20 ng/L TGFβ-1, 0.8 ng/L TGFβ-2, 80 ng/L IGF-1, fructose 15 g/L, day 5) 85.8%; (Table 7, Androhep Plus + 20 ng/L TGFβ-1, 0.8 ng/L TGFβ-2, 80 ng/L IGF-1, fructose 15 g/L, day 10) 89.3%; (Table 7, Androhep Plus + 20 ng/L TGFβ-1, 0.8 ng/L TGFβ-2, 80 ng/L IGF-1, fructose 15 g/L, day 20) 89.3%. Moreover, the Mean % motility (Table 7, Androhep Plus + 20 ng/L TGFβ-1, 0.8 ng/L TGFβ-2, 80 ng/L IGF-1, fructose 30 g/L, day 1) was 94.7%; the Mean % motility (Table 7, Androhep Plus + 20 ng/L TGFβ-1, 0.8 ng/L TGFβ-2, 80 ng/L IGF-1, fructose 30 g/L, day 5) turned out to be 54.8%; the Mean % motility (Table 7, Androhep Plus + 20 ng/L TGFβ-1, 0.8 ng/L TGFβ-2, 80 ng/L IGF-1, fructose 30 g/L, day 10) was 37.4%; the Mean % motility (Table 7, Androhep Plus + 20 ng/L TGFβ-1, 0.8 ng/L TGFβ-2, 80 ng/L IGF-1, fructose 30 g/L, day 20) stood at 2.2%.

On to `O=S(=O)([O-])[O-].[Zn+2]` [zinc sulfate], for which the Mean % motility (Table 6, base Androhep Plus, zinc sulfate 0.05 g/L, day 1) is listed as 83.3%; the Mean % motility (Table 6, base Androhep Plus, zinc sulfate 0.05 g/L, day 5) is 83.7%; the Mean % motility (Table 6, base Androhep Plus, zinc sulfate 0.05 g/L, day 10) turned out to be 87.7%; the Mean % motility (Table 6, base Androhep Plus, zinc sulfate 0.05 g/L, day 20) amounted to 84.0%; the Mean % motility (Table 6, base Androhep Plus, zinc sulfate 0.1 g/L, day 1) is 92.0%; the Mean % motility (Table 6, base Androhep Plus, zinc sulfate 0.1 g/L, day 5) amounted to 93.3%. In addition, the Mean % motility was determined as 89.7% (Table 6, base Androhep Plus, zinc sulfate 0.1 g/L, day 10); 78.3% (Table 6, base Androhep Plus, zinc sulfate 0.1 g/L, day 20); 94.7% (Table 6, base Androhep Plus, zinc sulfate 0.2 g/L, day 1); 93.3% (Table 6, base Androhep Plus, zinc sulfate 0.2 g/L, day 5); 87.7% (Table 6, base Androhep Plus, zinc sulfate 0.2 g/L, day 10); 87.0% (Table 6, base Androhep Plus, zinc sulfate 0.2 g/L, day 20). The Mean % motility reads like this: (Table 6, base Androhep Plus, zinc sulfate 0.5 g/L, day 1) 86.0%; (Table 6, base Androhep Plus, zinc sulfate 0.5 g/L, day 5) 85.7%; (Table 6, base Androhep Plus, zinc sulfate 0.5 g/L, day 10) 89.3%; (Table 6, base Androhep Plus, zinc sulfate 0.5 g/L, day 20) 82.5%; (Table 6, base Androhep Plus, zinc sulfate 1.0 g/L, day 1) 94.0%; (Table 6, base Androhep Plus, zinc sulfate 1.0 g/L, day 5) 73.0%. In addition, the Mean % motility runs as follows: (Table 6, base Androhep Plus, zinc sulfate 1.0 g/L, day 10) 87.3%; (Table 6, base Androhep Plus, zinc sulfate 1.0 g/L, day 20) 78.3%.
